Measured values as given in ChEMBL document CHEMBL5154734, “Novel potent benzimidazole-based microsomal prostaglandin E2 synthase-1 (mPGES-1) inhibitors derived from BRP-201 that also inhibit leukotriene C4 synthase” (Eur J Med Chem, 2022).
Calls of active or inactive are those of the source. No cut-off for these calls is given here.

Experiments:
Prostaglandin E synthase = biological target: T1, Prostaglandin E synthase (Homo sapiens, UniProt O14684); test: Inhibition of mPGES-1 activity in human A549 microsomal preparation using PGH2 as substrate preincubated for 15 mins followed by substrate addition for 1 min by RP-HPLC analysis; assay type: microsomes, Microsome
T1 sequence (O14684 whole entry): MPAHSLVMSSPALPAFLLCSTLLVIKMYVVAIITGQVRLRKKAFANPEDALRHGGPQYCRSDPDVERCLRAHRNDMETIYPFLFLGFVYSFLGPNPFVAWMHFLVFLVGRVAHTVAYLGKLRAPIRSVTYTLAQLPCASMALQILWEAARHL

[1] = biological target: T2, Prostaglandin E synthase (Homo sapiens) (UniProt O14684); test: Inhibition of mPGES-1 activity in IL-1beta human A549 microsomal preparation at 10 uM using PGH2 as substrate preincubated for 15 mins followed by substrate addition for 1 min by RP-HPLC analysis; assay type: microsomes; conditions: Microsome, time 16.0 min
T2 sequence (whole entry): T1 sequence (O14684 whole entry)

Neutrophil = test: Cytotoxicity against human neutrophils assessed as reduction in cell viability at 10 uM by LDH release assay; assay type: toxicity, cell-based
[2] = biological target: T3, Polyunsaturated fatty acid 5-lipoxygenase (Homo sapiens) (UniProt P09917); test: Inhibition of 5-LOX in human neutrophils assessed as reduction in FLAP-dependent 5-LO product LTB4 formation at upto 10 uM preincubated for 10 mins followed by A23187 addition and measured after 10 mins by RP-HPLC and UV detection method; assay type: cell-based; conditions: Neutrophil
T3 sequence (whole entry): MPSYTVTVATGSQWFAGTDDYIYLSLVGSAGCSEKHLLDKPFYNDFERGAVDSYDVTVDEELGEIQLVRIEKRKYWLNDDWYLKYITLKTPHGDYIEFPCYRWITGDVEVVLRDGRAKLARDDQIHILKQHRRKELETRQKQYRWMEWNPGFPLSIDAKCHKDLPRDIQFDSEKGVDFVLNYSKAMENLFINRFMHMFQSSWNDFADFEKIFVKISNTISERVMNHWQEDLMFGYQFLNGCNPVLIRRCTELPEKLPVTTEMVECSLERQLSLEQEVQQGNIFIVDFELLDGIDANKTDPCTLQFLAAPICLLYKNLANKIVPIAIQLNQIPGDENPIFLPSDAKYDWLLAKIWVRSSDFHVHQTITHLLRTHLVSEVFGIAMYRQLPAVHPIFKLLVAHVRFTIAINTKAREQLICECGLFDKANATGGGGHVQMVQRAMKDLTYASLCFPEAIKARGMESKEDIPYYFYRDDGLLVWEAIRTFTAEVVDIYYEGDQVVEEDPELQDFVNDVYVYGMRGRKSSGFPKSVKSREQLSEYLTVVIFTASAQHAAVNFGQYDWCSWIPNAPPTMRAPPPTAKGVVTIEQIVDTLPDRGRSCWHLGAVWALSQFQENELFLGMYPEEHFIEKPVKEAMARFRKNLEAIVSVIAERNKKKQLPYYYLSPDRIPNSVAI

[3] = biological target: T4, Polyunsaturated fatty acid 5-lipoxygenase (Homo sapiens, UniProt P09917); test: Inhibition of human recombinant 5-LOX expressed in Escherichia coli BL21 assessed as inhibition of […] 5-LO product LTB4 formation preincubated for 15 mins followed by arachidonic acid addition and measured after 10 mins by RP-HPLC analysis
T4 sequence (P09917 whole entry): T3 sequence (whole entry)

Leukotriene C4 synthase [4] = biological target: T5, Leukotriene C4 synthase (Homo sapiens, UniProt Q16873); test: Inhibition of human recombinant LTC4S expressed in HEK293 cell microsomal fraction preincubated for 10 mins followed by LTA4-methyl ester addition and measured after 10 mins by UPLC-MS/MS analysis; assay type: microsomes, Microsome
T5 sequence (Q16873 whole entry): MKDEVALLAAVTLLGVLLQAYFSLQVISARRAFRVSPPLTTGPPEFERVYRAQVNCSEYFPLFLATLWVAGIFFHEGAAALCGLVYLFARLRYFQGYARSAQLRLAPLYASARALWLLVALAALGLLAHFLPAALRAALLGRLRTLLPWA

Leukotriene C4 synthase [5] = biological target: T5, Leukotriene C4 synthase; test: Inhibition of recombinant LTC4S (unknown origin) expressed in COS cells; assay type: cell-based

IC50 (Prostaglandin E synthase)	inhibition [2]	IC50 [3]	IC50 (Leukotriene C4 synthase [4])	SMILES	Activity (Neutrophil)	other results
2500 nM				O=C(Nc1cccc(-c2n[nH]c(=S)o2)c1)c1ccc(OCc2ccccc2)cc1		
				COc1cc(-c2nc3cc(-c4n[nH]c(=S)o4)ccc3[nH]2)ccc1OCc1ccccc1		inhibition [1]: Active
30 nM	Active	3710 nM	2800 nM	S=c1[nH]nc(-c2ccc3[nH]c(-c4ccc(Oc5ccccc5)cc4)nc3c2)o1	Non-Toxic	
1600 nM				S=c1[nH]nc(-c2ccc3[nH]c(Cc4ccc(OCc5ccccc5)cc4)nc3c2)o1		
90 nM	Active	2620 nM	400 nM	CC(c1ccc(Oc2ccccc2)cc1)c1nc2cc(-c3n[nH]c(=S)o3)ccc2[nH]1 (configuration not stated)	Non-Toxic	
1060 nM				Cn1c(-c2ccc(OCc3ccccc3)cc2)nc2cc(-c3n[nH]c(=S)o3)ccc21		
30 nM	Active	1260 nM	700 nM	S=c1[nH]nc(-c2ccc3[nH]c(-c4ccc(OCc5ccccc5)cc4)nc3c2)o1	Non-Toxic	inhibition [1]: Active
				CC(C)c1ccc2c(c1)c(SC(C)(C)C)c(CC(C)(C)C(=O)O)n2Cc1ccc(Cl)cc1		IC50 (Leukotriene C4 synthase [5]): 3000 nM
2200 nM				O=C(Nc1cc(-c2n[nH]c(=S)o2)ccc1F)c1ccc(OCc2ccccc2)cc1		
